Data: ChEMBL document CHEMBL1201862, “PubChem BioAssay data set” (2004)
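Step 1: Grow cells in 96-well plates. Step 2: Expose to compound for 48 hours at 5 concentrations. Step 3: Interpolate endpoints linearly; if unreached, use highest concentration. At the GI50, growth is halved.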 Active and inactive are the calls of the source. No stated cut-off is given here; in the data, active = GI50 up to about 1.1 µM and inactive = higher.

Legend:
Assay in all cases: DTP human tumour cell line panel, 48 h
HCC 2998 = system: HCC 2998
SK-MEL-28 = system: SK-MEL-28
M14 = system: M14
T47D = system: T47D
HCT-15 = system: HCT-15
BT-549 = system: BT-549
PC-3 = system: PC-3
OVCAR-4 = system: OVCAR-4
MDA-MB-231 = system: MDA-MB-231
NCI/ADR-RES = system: NCI/ADR-RES
OVCAR-8 = system: OVCAR-8
SNB-75 = system: SNB-75
U-251 = system: U-251
SF-295 = system: SF-295
K562 = system: K562
786-0 = system: 786-0
SW-620 = system: SW-620
CCRF-CEM = system: CCRF-CEM
MDA-N = system: MDA-N
HOP-92 = system: HOP-92
A549 = system: A549
NCI-H23 = system: NCI-H23
OVCAR-3 = system: OVCAR-3
EKVX = system: EKVX
COLO 205 = system: COLO 205
SK-MEL-5 = system: SK-MEL-5
HT-29 = system: HT-29
HOP-62 = system: HOP-62
HCT-116 = system: HCT-116
UO-31 = system: UO-31
LOX IMVI = system: LOX IMVI
SNB-19 = system: SNB-19
UACC-257 = system: UACC-257
SF-539 = system: SF-539
MOLT-4 = system: MOLT-4
DU-145 = system: DU-145
MDA-MB-435 = system: MDA-MB-435
SR = system: SR
MCF7 = system: MCF7
KM12 = system: KM12
HL-60 = system: HL-60
SF-268 = system: SF-268
SN12C = system: SN12C
NCI-H460 = system: NCI-H460
OVCAR-5 = system: OVCAR-5
TK-10 = system: TK-10
NCI-H522 = system: NCI-H522
RPMI-8226 = system: RPMI-8226
CAKI-1 = system: CAKI-1
NCI-H226 = system: NCI-H226
SK-OV-3 = system: SK-OV-3
UACC-62 = system: UACC-62
A498 = system: A498
IGROV-1 = system: IGROV-1
Hs-578T = system: Hs-578T
ACHN = system: ACHN
SK-MEL-2 = system: SK-MEL-2
Malme-3M = system: Malme-3M
RXF 393 = system: RXF 393

C1CSC[C@H]2COC[C@@H](CSCCS1)S2 was tested, and the GI50 (HCC 2998) was > 100000 nM (inactive), the GI50 (SK-MEL-28) was > 100000 nM (inactive) and the GI50 (M14) was > 100000 nM (inactive). For the same compound, the GI50 (T47D) was > 100000 nM (inactive), the GI50 (HCT-15) was > 100000 nM and the GI50 (BT-549) was > 100000 nM (inactive). The GI50 (PC-3) was > 100000 nM (inactive), the GI50 (OVCAR-4) was > 100000 nM (inactive) and the GI50 (MDA-MB-231) was > 100000 nM (inactive). For the same compound, the GI50 (NCI/ADR-RES) was > 100000 nM (inactive), the GI50 (OVCAR-8) was > 100000 nM (inactive) and the GI50 (SNB-75) was 56000 nM (inactive). The GI50 (U-251) was > 100000 nM (inactive), the GI50 (SF-295) was > 100000 nM (inactive) and the GI50 (K562) was > 100000 nM (inactive). The GI50 (786-0) was > 100000 nM (inactive), the GI50 (SW-620) was > 100000 nM (inactive) and the GI50 (CCRF-CEM) was > 100000 nM (inactive). For the same compound, the GI50 (MDA-N) was > 100000 nM (inactive), the GI50 (HOP-92) was > 100000 nM (inactive) and the GI50 (A549) was > 100000 nM (inactive). For the same compound, the GI50 (NCI-H23) was > 100000 nM (inactive), the GI50 (OVCAR-3) was > 100000 nM (inactive) and the GI50 (EKVX) was > 100000 nM (inactive). The GI50 (COLO 205) was > 100000 nM (inactive), the GI50 (SK-MEL-5) was > 100000 nM (inactive) and the GI50 (HT-29) was > 100000 nM (inactive). The GI50 (HOP-62) was > 100000 nM (inactive), the GI50 (HCT-116) was > 100000 nM (inactive) and the GI50 (UO-31) was > 100000 nM (inactive). The GI50 (LOX IMVI) was > 100000 nM (inactive), the GI50 (SNB-19) was > 100000 nM (inactive) and the GI50 (UACC-257) was > 100000 nM (inactive). For the same compound, the GI50 (SF-539) was > 100000 nM (inactive), the GI50 (MOLT-4) was > 100000 nM (inactive) and the GI50 (DU-145) was > 100000 nM (inactive). The GI50 (MDA-MB-435) was > 100000 nM (inactive), the GI50 (SR) was > 100000 nM (inactive) and the GI50 (MCF7) was > 100000 nM (inactive). The GI50 (KM12) was > 100000 nM (inactive), the GI50 (HL-60) was > 100000 nM (inactive) and the GI50 (SF-268) was > 100000 nM (inactive). The GI50 (SN12C) was > 100000 nM (inactive), the GI50 (NCI-H460) was > 100000 nM (inactive) and the GI50 (OVCAR-5) was > 100000 nM (inactive). For the same compound, the GI50 (TK-10) was 50400 nM (inactive) and the GI50 (NCI-H522) was > 100000 nM (inactive).

For C/C(=N\Nc1nc2ccccc2o1)c1ccncn1, the GI50 (HCC 2998) was 1020 nM (active), the GI50 (SK-MEL-28) was 513 nM (active) and the GI50 (M14) was 126 nM (active). The GI50 (T47D) was 84.5 nM (active), the GI50 (HCT-15) was 47.6 nM and the GI50 (RPMI-8226) was 109 nM (active). For the same compound, the GI50 (BT-549) was 5190 nM (inactive), the GI50 (PC-3) was 310 nM (active) and the GI50 (OVCAR-4) was 129 nM (active). The GI50 (CAKI-1) was 47.1 nM (active), the GI50 (MDA-MB-231) was 169 nM (active) and the GI50 (NCI-H226) was 228 nM (active). For the same compound, the GI50 (NCI/ADR-RES) was 190 nM (active), the GI50 (OVCAR-8) was 92.9 nM (active) and the GI50 (SNB-75) was 457 nM (active). For the same compound, the GI50 (U-251) was 162 nM (active), the GI50 (SF-295) was 363 nM (active) and the GI50 (K562) was 51.4 nM (active). For the same compound, the GI50 (786-0) was 86.9 nM (active), the GI50 (SW-620) was 45.5 nM (active) and the GI50 (CCRF-CEM) was 48.1 nM (active). The GI50 (HOP-92) was 124 nM (active), the GI50 (A549) was 240 nM (active) and the GI50 (NCI-H23) was 360 nM (active). For the same compound, the GI50 (OVCAR-3) was 52.4 nM (active), the GI50 (EKVX) was 52.6 nM (active) and the GI50 (COLO 205) was 42.7 nM (active). For the same compound, the GI50 (SK-MEL-5) was 181 nM (active), the GI50 (HT-29) was 35.6 nM (active) and the GI50 (HOP-62) was 228 nM (active). The GI50 (HCT-116) was 71.3 nM (active), the GI50 (UO-31) was 47.9 nM (active) and the GI50 (SK-OV-3) was 294 nM (active). The GI50 (LOX IMVI) was 124 nM (active), the GI50 (SNB-19) was 432 nM (active) and the GI50 (UACC-62) was 280 nM (active). The GI50 (A498) was 450 nM (active), the GI50 (UACC-257) was 396 nM (active) and the GI50 (SF-539) was 258 nM (active). The GI50 (IGROV-1) was 116 nM (active), the GI50 (Hs-578T) was 955 nM (active) and the GI50 (MOLT-4) was 30.5 nM (active). For the same compound, the GI50 (DU-145) was 1260 nM (inactive), the GI50 (ACHN) was 63.8 nM (active) and the GI50 (MDA-MB-435) was 247 nM (active). For the same compound, the GI50 (SR) was 64.7 nM (active), the GI50 (MCF7) was 55.6 nM (active) and the GI50 (KM12) was 163 nM (active). The GI50 (HL-60) was 21.8 nM (active), the GI50 (SK-MEL-2) was 277 nM (active) and the GI50 (SF-268) was 132 nM (active). For the same compound, the GI50 (Malme-3M) was 124 nM (active), the GI50 (SN12C) was 225 nM (active) and the GI50 (NCI-H460) was 96.4 nM (active). For the same compound, the GI50 (RXF 393) was 2290 nM (inactive), the GI50 (OVCAR-5) was 4360 nM (inactive) and the GI50 (TK-10) was 1120 nM (active). The GI50 (NCI-H522) was 41.9 nM (active).
